These results are taken from patent publication US6248305A, “Boron heterocycle steroid mimics and associated pharmaceutical compositions and methods of use” (SRI International, priority 2000, dated 2001).

The % Inhibition is the share of the control response that was lost under treatment. A lower % Inhibition goes with little suppression.

The test system of one test is MCF-7 cells. The test is described as follows: Antiproliferative assay, MCF-7 cells, alamar Blue. The class given is cell-based. How it is done: MCF-7 cells were obtained from the American Type Culture Collection (ATCC, Rockville, Md.). Exponentially growing cells were plated (96-well plates) in MEM (minimal essential medium) containing NaHCO3, CCD (charcoal-coated dextran)-stripped 10% FCS (fetal calf serum), and glycine. Cultures were incubated at 37° C. for 1 day, then treated with target by replacing the medium with 100 μL MEM containing supplements and target (3 wells at each of 5 concentrations). The relative effect of each concentration was compared to that of β-estradiol (positive control) by the alamar Blue™ assay (Biosource International),in which the dye is reduced by cellular mitochondrial enzymes to a soluble fluorophore with an intensity directly proportional to cell number. After cultures were incubated with target, alamar Blue™ diluted to 20% in MEM was added (100 μL/well) and cells were incubated for about 4 h, until a color change indicated sufficient amounts of reduced dye for quantitation. Relative cell number was evaluated directly from the plates by fluorimetry (560 nm excitation, 590 nm detection) on a Millipore 2300 CytoFluor. The concentration at which 50% effectiveness is seen (EC50) was calculated from statistically significant, reproducible effects. Statistical analysis was performed using JMP software (SAS Institute).

Another test deals with estrogen receptor. The conditions noted are these: cited from earlier work.
The mark [1] stands for this setting: concentration 10^-5 (unit not given).
Setting [2] is: concentration 10^-6 (unit not given).
Setting [3] is: concentration 10^-7 (unit not given).
Where [4] appears, read: concentration 10^-8 (unit not given).
The mark [5] stands for this setting: concentration 10^-9 (unit not given).

With `O=C1OB2c3ccc(O)cc3C=NN2c2ccccc21` [Compound 4, 1,2-dihydro-1,6-dihydroxy-2-(2-carboxyphenyl)-2,3,1-benzodiazaborine lactone], the “% Inhibition” value in the test on MCF-7 cells (setting [1]) is 13%; in the test on MCF-7 cells (setting [2]) it was 4%; in the test with MCF-7 cells (setting [3]) it was 2%; in the test with MCF-7 cells (setting [4]), 6%; with MCF-7 cells (setting [5]), 0%.

With `OB1c2ccc(O)cc2C=NN1c1ccccn1` [Compound 11, 1,2-dihydro-1,6-dihydroxy-2-(6-pyridinyl)-2,3,1-benzodiazaborine], the “% Inhibition” value in the test on MCF-7 cells (setting [1]) is 55%; with MCF-7 cells (setting [2]), 10%; with MCF-7 cells (setting [3]), 8%; in the test with MCF-7 cells (setting [4]), 8%; in the test with MCF-7 cells (setting [5]), 5%.

`COc1cccc(N2N=Cc3cc(O)ccc3B2O)n1` [Compound 15, 1,2-dihydro-1,6-dihydroxy-2-(2-methoxy-6-pyridinyl)-2,3,1-benzodiazaborine]: the “% Inhibition” value with MCF-7 cells (setting [1]) was found to be 62%; in the test on MCF-7 cells (setting [2]) it was 3%; in the test on MCF-7 cells (setting [3]) it was 0%; in the test with MCF-7 cells (setting [4]), 0%; in the test with MCF-7 cells (setting [5]) it was 0%.

Regarding `CC/C(=C(\c1ccccc1)c1ccc(OCCN(C)C)cc1)c1ccccc1` [tamoxifen, reference compound], the “% Inhibition” value is on record as 95% with MCF-7 cells (setting [1]); 54% in the test on MCF-7 cells (setting [2]); 29% in the test with MCF-7 cells (setting [3]); 5% with MCF-7 cells (setting [4]); 0% with MCF-7 cells (setting [5]).

For “Estrone and Estradiol-17β, 3-carboranylmethyl Ethers”, the “affinity for the estrogen receptor” value with estrogen receptor is reported as 0.5.
